Test results from PubChem BioAssay (NCI).
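Protocol summary: plate cells (96-well), add compound at 5 concentrations, incubate 48 h, interpolate endpoints linearly. TGI: concentration producing complete growth inhibition.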

What was measured:
Experiment in all cases: NCI anticancer screen, dose series, 48 h
HS 578T breast = tested on: HS 578T breast
COLO 205 colon = tested on: COLO 205 colon
KM12 colon = tested on: KM12 colon
SW-620 colon = tested on: SW-620 colon
OVCAR-3 ovarian = tested on: OVCAR-3 ovarian
BT-549 breast = tested on: BT-549 breast
UO-31 renal = tested on: UO-31 renal
HOP-62 NSCLC = tested on: HOP-62 NSCLC
MDA-N = tested on: MDA-N
HCC-2998 colon = tested on: HCC-2998 colon
HCT-116 colon = tested on: HCT-116 colon
SN12C renal = tested on: SN12C renal
MCF7 breast = tested on: MCF7 breast
OVCAR-4 ovarian = tested on: OVCAR-4 ovarian
786-0 renal = tested on: 786-0 renal
SK-OV-3 ovarian = tested on: SK-OV-3 ovarian
UACC-62 melanoma = tested on: UACC-62 melanoma
NCI-H23 lung = tested on: NCI-H23 lung
K-562 leukemia = tested on: K-562 leukemia
UACC-257 melanoma = tested on: UACC-257 melanoma
A549 NSCLC = tested on: A549 NSCLC
SF-295 CNS = tested on: SF-295 CNS
ACHN renal = tested on: ACHN renal
LOX IMVI melanoma = tested on: LOX IMVI melanoma
SF-268 CNS = tested on: SF-268 CNS
PC-3 prostate = tested on: PC-3 prostate
HCT-15 colon = tested on: HCT-15 colon
HL-60(TB) leukemia = tested on: HL-60(TB) leukemia
M14 melanoma = tested on: M14 melanoma
HT29 colon = tested on: HT29 colon
MDA-MB-435 = tested on: MDA-MB-435
OVCAR-8 ovarian = tested on: OVCAR-8 ovarian
TK-10 renal = tested on: TK-10 renal
NCI/ADR-RES ovarian = tested on: NCI/ADR-RES ovarian
NCI-H460 lung = tested on: NCI-H460 lung
CAKI-1 renal = tested on: CAKI-1 renal
OVCAR-5 ovarian = tested on: OVCAR-5 ovarian
MALME-3M melanoma = tested on: MALME-3M melanoma
SF-539 CNS = tested on: SF-539 CNS
CCRF-CEM leukemia = tested on: CCRF-CEM leukemia
SNB-19 CNS = tested on: SNB-19 CNS
EKVX NSCLC = tested on: EKVX NSCLC
MDA-MB-231 breast = tested on: MDA-MB-231 breast
SK-MEL-28 melanoma = tested on: SK-MEL-28 melanoma
HOP-92 NSCLC = tested on: HOP-92 NSCLC
IGROV1 ovarian = tested on: IGROV1 ovarian
U251 CNS = tested on: U251 CNS
NCI-H522 lung = tested on: NCI-H522 lung
SNB-75 CNS = tested on: SNB-75 CNS
DU-145 prostate = tested on: DU-145 prostate
SR leukemia = tested on: SR leukemia
NCI-H226 lung = tested on: NCI-H226 lung
MOLT-4 leukemia = tested on: MOLT-4 leukemia
SK-MEL-2 melanoma = tested on: SK-MEL-2 melanoma

Measured: TGI

Cc1ccc2nc(CN(CCO)CCO)cc(=O)n2c1
> 100 µM: HS 578T breast | COLO 205 colon | KM12 colon | SW-620 colon | OVCAR-3 ovarian | BT-549 breast | UO-31 renal | HOP-62 NSCLC | MDA-N | HCC-2998 colon | HCT-116 colon | SN12C renal | MCF7 breast | OVCAR-4 ovarian | 786-0 renal | SK-OV-3 ovarian | UACC-62 melanoma | NCI-H23 lung | K-562 leukemia | UACC-257 melanoma | A549 NSCLC | SF-295 CNS | ACHN renal | LOX IMVI melanoma | SF-268 CNS | PC-3 prostate | HCT-15 colon | HL-60(TB) leukemia | M14 melanoma | HT29 colon | MDA-MB-435 | OVCAR-8 ovarian | TK-10 renal | NCI/ADR-RES ovarian | NCI-H460 lung | CAKI-1 renal | OVCAR-5 ovarian | MALME-3M melanoma | SF-539 CNS | CCRF-CEM leukemia | SNB-19 CNS | EKVX NSCLC | MDA-MB-231 breast | SK-MEL-28 melanoma | HOP-92 NSCLC | IGROV1 ovarian | U251 CNS | NCI-H522 lung | SNB-75 CNS | DU-145 prostate | SR leukemia | NCI-H226 lung | MOLT-4 leukemia | SK-MEL-2 melanoma
